# Laboratory results as given in PMC10693528, “A high-throughput metabolomics in vitro platform for the characterization of hepatotoxicity” (Cell Biology and Toxicology, 2023).
# Key:
# HepG2 cells [1] = test: Cytotoxicity (CellTox Green) in parallel with metabolomics experiments; settings: intermediate concentration (C3; C2 for aroclor), 48 h
# Protocol: Commercially available cytotoxicity (CellTox™ Green) and ATP content based (CellTiter-Glo®) assays (Promega GmbH, Walldorf, Germany) were multiplexed in a single 96-well plate following the manufacturer’s instructions. For positive controls, lysis solution 25X was added in wells containing vehicle control treated cells (0.5% DMSO). Then, 10X CellTox Green reagent was added in all wells, plates were shaken for 1 min, and incubated in the dark for 15 min at room temperature. […] Afterwards, wells were washed with PBS, 100 μL of Dulbecco’s MEM media were added to each well and subsequently 100 μL of 1X CellTiter-Glo were added. Plates were shaken for 2 min and incubated in the dark for 8 min at room temperature. Luminescence was measured in the GloMax®-Multi Detection System (Promega) and was normalized to the values of the vehicle control. Cytotoxicity and ATP cell viability analysis were carried out for range finder pre-tests and in parallel with metabolomics experiments in plates handled and treated exactly as the ones used for metabolite profiling.
# HepG2 cells [2] = test: LC-MS/MS targeted intracellular metabolomics; assay type: cell-based, human; settings: 48 h
# Procedure, shortened: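 Metabolites extracted in-plate from HepG2 cells with 80% isopropanol and analysed by RP and HILIC LC-MS/MS in positive and negative mode. Data normalised to lyophilised untreated HepG2 reference samples and to each sample's median across 221 metabolites. Treated versus control compared by Welch t test on log-transformed data.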
# [3] = Suppl Fig 10, C3 (C2 for Aroclor)
# [4] = Suppl Fig 9, C3 (EC15 ATP), Bezafibrate lines = Plates 1-6 in order
compound,measurement,setting,value
CCC(CC)Nc1c([N+](=O)[O-])cc(C)c(C)c1[N+](=O)[O-] [Pendimethalin],cytotoxicity (CellTox Green),HepG2 cells [1],low cytotoxicity
same,Carnitine level vs controls,HepG2 cells [2]; [3],0.76
same,Ceramide (d16:1.C24:0) level vs controls,HepG2 cells [2]; [3],1.35
same,Ceramide (d17:1.C24:0) level vs controls,HepG2 cells [2]; [3],1.40
same,Ceramide (d18:1.C20:0) level vs controls,HepG2 cells [2]; [3],0.81
same,Ceramide (d18:1.C22:1) level vs controls,HepG2 cells [2]; [3],0.43
same,Ceramide (d18:1.C24:1) level vs controls,HepG2 cells [2]; [3],0.54
same,Ceramide (d18:2.C16:0) level vs controls,HepG2 cells [2]; [3],2.06
same,Ceramide (d18:2.C23:0) level vs controls,HepG2 cells [2]; [3],1.14
same,Ceramide (d18:2.C24:0) level vs controls,HepG2 cells [2]; [3],1.87
same,Ceramide (d18:2.C24:1) level vs controls,HepG2 cells [2]; [3],1.17
same,Choline plasmalogen (C36:4) level vs controls,HepG2 cells [2]; [3],0.63
same,Choline plasmalogen (C36:5) level vs controls,HepG2 cells [2]; [3],0.68
same,Cysteinylglycine level vs controls,HepG2 cells [2]; [3],1.14
same,Flavin adenine dinucleotide (FAD) level vs controls,HepG2 cells [2]; [3],1.14
same,Glutathione (GSH) level vs controls,HepG2 cells [2]; [3],1.12
same,Hexanoylcarnitine level vs controls,HepG2 cells [2]; [3],0.69
same,Isopentenyl pyrophosphate (IPP) level vs controls,HepG2 cells [2]; [3],2.79
same,Lysophosphatidylcholine (C14:0) level vs controls,HepG2 cells [2]; [3],2.28
same,Lysophosphatidylcholine (C16:0) level vs controls,HepG2 cells [2]; [3],2.37
same,Lysophosphatidylcholine (C20:0) level vs controls,HepG2 cells [2]; [3],2.37
same,Lysophosphatidylcholine (C20:1) level vs controls,HepG2 cells [2]; [3],1.47
same,Lysophosphatidylcholine (C20:4) level vs controls,HepG2 cells [2]; [3],2.32
same,Lysophosphatidylcholine (C22:0) level vs controls,HepG2 cells [2]; [3],3.44
same,Lysophosphatidylcholine (C24:0) level vs controls,HepG2 cells [2]; [3],4.49
same,Lysophosphatidylcholine (C24:1) level vs controls,HepG2 cells [2]; [3],3.59
same,Lysophosphatidylethanolamine (C16:0) level vs controls,HepG2 cells [2]; [3],1.81
same,Lysophosphatidylethanolamine (C18:0) level vs controls,HepG2 cells [2]; [3],2.07
same,N-Acetylglucosamine level vs controls,HepG2 cells [2]; [3],0.93
same,N-Acetylserine level vs controls,HepG2 cells [2]; [3],1.47
same,O-Acetylcarnitine level vs controls,HepG2 cells [2]; [3],1.02
same,Pantothenic acid level vs controls,HepG2 cells [2]; [3],0.78
same,Phosphatidylcholine (C32:0) level vs controls,HepG2 cells [2]; [3],1.93
same,Phosphatidylcholine (C34:0) level vs controls,HepG2 cells [2]; [3],1.83
same,Phosphatidylcholine (C34:2) level vs controls,HepG2 cells [2]; [3],0.64
same,Phosphatidylcholine (C34:3) level vs controls,HepG2 cells [2]; [3],0.79
same,Phosphatidylcholine (C36:0) level vs controls,HepG2 cells [2]; [3],2.49
same,Phosphatidylcholine (C36:1) level vs controls,HepG2 cells [2]; [3],0.93
same,Phosphatidylcholine (C36:2) level vs controls,HepG2 cells [2]; [3],0.52
same,Phosphatidylcholine (C36:3) level vs controls,HepG2 cells [2]; [3],0.73
same,Phosphatidylcholine (C36:4) level vs controls,HepG2 cells [2]; [3],1.10
same,Phosphatidylcholine (C38:6) level vs controls,HepG2 cells [2]; [3],1.15
same,Phosphatidylethanolamine (C32:0) level vs controls,HepG2 cells [2]; [3],3.04
same,Phosphatidylethanolamine (C34:0) level vs controls,HepG2 cells [2]; [3],2.78
same,Phosphatidylethanolamine (C34:1) level vs controls,HepG2 cells [2]; [3],1.48
same,Phosphatidylethanolamine (C34:2) level vs controls,HepG2 cells [2]; [3],0.68
same,Phosphatidylethanolamine (C36:0) level vs controls,HepG2 cells [2]; [3],3.98
same,Phosphatidylethanolamine (C36:1) level vs controls,HepG2 cells [2]; [3],1.46
same,Phosphatidylethanolamine (C36:3) level vs controls,HepG2 cells [2]; [3],0.82
same,Phosphatidylethanolamine (C38:5) level vs controls,HepG2 cells [2]; [3],0.79
same,Phosphatidylethanolamine (C40:7) level vs controls,HepG2 cells [2]; [3],0.57
same,Proline level vs controls,HepG2 cells [2]; [3],0.89
same,Propionylcarnitine level vs controls,HepG2 cells [2]; [3],0.65
same,Sphingomyelin (d32:1) level vs controls,HepG2 cells [2]; [3],0.92
same,Sphingomyelin (d35:1) level vs controls,HepG2 cells [2]; [3],1.07
same,Sphingomyelin (d38:2) level vs controls,HepG2 cells [2]; [3],0.76
same,Sphingomyelin (d40:2) level vs controls,HepG2 cells [2]; [3],0.93
same,Sphingomyelin (d41:2) level vs controls,HepG2 cells [2]; [3],0.79
same,Sphingomyelin (d42:2) level vs controls,HepG2 cells [2]; [3],0.73
same,Triacylglycerol (C30:0.C18:1) level vs controls,HepG2 cells [2]; [3],0.81
same,Triacylglycerol (C32:0.C16:1) level vs controls,HepG2 cells [2]; [3],0.66
same,Triacylglycerol (C32:1.C16:1) level vs controls,HepG2 cells [2]; [3],0.58
same,Triacylglycerol (C34:0.C18:1) level vs controls,HepG2 cells [2]; [3],0.96
same,Triacylglycerol (C34:1.C16:0) level vs controls,HepG2 cells [2]; [3],0.79
same,Triacylglycerol (C34:1.C18:1) level vs controls,HepG2 cells [2]; [3],0.71
same,Triacylglycerol (C34:2.C18:0) level vs controls,HepG2 cells [2]; [3],0.87
same,Triacylglycerol (C34:2.C18:1) level vs controls,HepG2 cells [2]; [3],0.44
same,Triacylglycerol (C36:1.C18:0) level vs controls,HepG2 cells [2]; [3],0.86
same,Triacylglycerol (C36:1.C18:1) level vs controls,HepG2 cells [2]; [3],0.65
same,Triacylglycerol (C36:1.C18:2) level vs controls,HepG2 cells [2]; [3],0.83
same,Triacylglycerol (C36:2.C18:1) level vs controls,HepG2 cells [2]; [3],0.49
same,Triacylglycerol (C36:3.C18:1) level vs controls,HepG2 cells [2]; [3],0.78
same,Tyrosine level vs controls,HepG2 cells [2]; [3],1.14
same,myo-Inositol-2-phosphate level vs controls,HepG2 cells [2]; [3],0.76
same,Sphingomyelin (d34:2) level vs controls,"HepG2 cells [2]; Suppl Fig 10, C3 (C2 for Aroclor), first of two lines with this name",1.11
same,Sphingomyelin (d34:2) level vs controls,"HepG2 cells [2]; Suppl Fig 10, C3 (C2 for Aroclor), second of two lines with this name",1.27
Cc1cccc(Nc2cc(Cl)nc(SCC(=O)O)n2)c1C [Wy-14643],cytotoxicity (CellTox Green),HepG2 cells [1],low cytotoxicity
same,2'-Deoxycytidine level vs controls,HepG2 cells [2]; [4],0.75
same,5-Hydroxytryptophan level vs controls,HepG2 cells [2]; [4],0.85
same,Carnitine level vs controls,HepG2 cells [2]; [4],0.99
same,Ceramide (d18:1.C20:0) level vs controls,HepG2 cells [2]; [4],0.66
same,Ceramide (d18:1.C24:1) level vs controls,HepG2 cells [2]; [4],0.92
same,Ceramide (d18:1.C24:2) level vs controls,HepG2 cells [2]; [4],0.71
same,Ceramide (d18:2.C24:1) level vs controls,HepG2 cells [2]; [4],0.97
same,Choline plasmalogen (C36:4) level vs controls,HepG2 cells [2]; [4],1.00
same,Choline plasmalogen (C36:5) level vs controls,HepG2 cells [2]; [4],1.03
same,Creatine level vs controls,HepG2 cells [2]; [4],0.85
same,Glycerol-3-phosphate level vs controls,HepG2 cells [2]; [4],0.72
same,Hexanoylcarnitine level vs controls,HepG2 cells [2]; [4],0.93
same,Ketoleucine level vs controls,HepG2 cells [2]; [4],0.86
same,Lysophosphatidylcholine (C14:0) level vs controls,HepG2 cells [2]; [4],1.51
same,Lysophosphatidylcholine (C16:0) level vs controls,HepG2 cells [2]; [4],1.26
same,Lysophosphatidylcholine (C16:1) level vs controls,HepG2 cells [2]; [4],1.06
same,Lysophosphatidylcholine (C20:4) level vs controls,HepG2 cells [2]; [4],1.28
same,Lysophosphatidylcholine (C24:0) level vs controls,HepG2 cells [2]; [4],1.50
same,Lysophosphatidylcholine (C24:1) level vs controls,HepG2 cells [2]; [4],1.20
same,Lysophosphatidylethanolamine (C16:0) level vs controls,HepG2 cells [2]; [4],1.18
same,Lysophosphatidylethanolamine (C18:0) level vs controls,HepG2 cells [2]; [4],1.26
same,Lysophosphatidylethanolamine (C18:1) level vs controls,HepG2 cells [2]; [4],1.12
same,N-Acetylaspartate level vs controls,HepG2 cells [2]; [4],1.22
same,Pantothenic acid level vs controls,HepG2 cells [2]; [4],0.74
same,Phosphatidylcholine (C32:0) level vs controls,HepG2 cells [2]; [4],0.81
same,Phosphatidylcholine (C34:1) level vs controls,HepG2 cells [2]; [4],0.91
same,Phosphatidylcholine (C34:3) level vs controls,HepG2 cells [2]; [4],1.04
same,Phosphatidylcholine (C36:1) level vs controls,HepG2 cells [2]; [4],0.96
same,Phosphatidylcholine (C36:2) level vs controls,HepG2 cells [2]; [4],0.86
same,Phosphatidylcholine (C36:3) level vs controls,HepG2 cells [2]; [4],0.93
same,Phosphatidylcholine (C36:4) level vs controls,HepG2 cells [2]; [4],0.98
same,Phosphatidylcholine (C36:5) level vs controls,HepG2 cells [2]; [4],0.92
same,Phosphatidylethanolamine (C36:3) level vs controls,HepG2 cells [2]; [4],0.82
same,Phosphatidylethanolamine (C38:3) level vs controls,HepG2 cells [2]; [4],0.92
same,Phosphatidylethanolamine (C38:5) level vs controls,HepG2 cells [2]; [4],0.89
same,Phosphatidylethanolamine (C38:6) level vs controls,HepG2 cells [2]; [4],0.96
same,Phosphatidylethanolamine (C40:7) level vs controls,HepG2 cells [2]; [4],0.92
same,Phosphocholine level vs controls,HepG2 cells [2]; [4],0.91
same,Propionylcarnitine level vs controls,HepG2 cells [2]; [4],0.97
same,S-Adenosylhomocysteine level vs controls,HepG2 cells [2]; [4],1.03
same,Sphingomyelin (d32:2) level vs controls,HepG2 cells [2]; [4],0.79
same,Sphingomyelin (d33:1) level vs controls,HepG2 cells [2]; [4],1.13
same,Sphingomyelin (d34:0) level vs controls,HepG2 cells [2]; [4],1.04
same,Sphingomyelin (d35:1) level vs controls,HepG2 cells [2]; [4],0.99
same,Sphingomyelin (d36:1) level vs controls,HepG2 cells [2]; [4],0.90
same,Sphingomyelin (d36:2) level vs controls,HepG2 cells [2]; [4],0.97
same,Sphingomyelin (d37:1) level vs controls,HepG2 cells [2]; [4],0.81
same,Sphingomyelin (d38:1) level vs controls,HepG2 cells [2]; [4],0.84
same,Sphingomyelin (d38:2) level vs controls,HepG2 cells [2]; [4],0.74
same,Sphingomyelin (d39:1) level vs controls,HepG2 cells [2]; [4],0.94
same,Sphingomyelin (d40:2) level vs controls,HepG2 cells [2]; [4],0.81
same,Sphingomyelin (d41:2) level vs controls,HepG2 cells [2]; [4],0.79
same,Sphingomyelin (d42:2) level vs controls,HepG2 cells [2]; [4],0.79
same,Taurine level vs controls,HepG2 cells [2]; [4],0.97
same,Triacylglycerol (C34:1.C18:3) level vs controls,HepG2 cells [2]; [4],1.01
same,Triacylglycerol (C34:2.C18:0) level vs controls,HepG2 cells [2]; [4],1.14
same,Triacylglycerol (C34:2.C18:1) level vs controls,HepG2 cells [2]; [4],1.01
same,Triacylglycerol (C36:4.C16:0) level vs controls,HepG2 cells [2]; [4],1.09
same,Triacylglycerol (C36:4.C18:0) level vs controls,HepG2 cells [2]; [4],1.18
